# How the values were obtained:
# mouse hepatitis model = experiment: Improvement effect on hepatitis, concanavalin A (ConA) mouse hepatitis model; type: in vivo, Blab/c mice; details: gavage 50 mg/kg, n = 10
# Experimental: In this example, the improvement effect of compounds 1 19 prepared in example 1 on […] measured. (1) Animals: Adult and Healthy Male Blab/c Mice, 25 30 g. […] The blank control group was injected with equal volume of isotonic saline. After modeling, indomethacin and compounds 1 19 were given by gavage every day at the dose of 50 mg/kg. The blank control group and the model control group were given equal volume of isotonic saline. Eyeball blood and liver tissue were taken at 6 h, 12 h, 24 h and 48 h after administration. The levels of serum alanine aminotransferase (ALT) and aspartate aminotransferase (AST) were measured.
# arthritis model = experiment: Improvement effect on arthritis, sodium iodoacetate knee joint model in SD rats; type: in vivo; design: Pathological tissue score (joint): scale not given here; details: gavage every day 100 mg/kg/d; 4th week after operation; n = 10
# Experimental: In this example, the improvement effect of compounds 1˜19 prepared in example 1 on arthritic was measured. (1) Animals: SD rats, four rates in one cage, were fed under the conditions of constant temperature (25±2° C.) and illumination control (12 h day/night circulation). The animals were fed with standard feed, and fed for at least 7 days to adapt environment before the experiment. […] (3) SD rats were fasted for 12 hours before operation, and weighed and recorded prior to operation. The blank control group was not treated any more. […] After anesthesia, they were fixed in the supine position. 0.1 ml of 1 g/L sodium iodoacetate solution was injected into the knee joint. From the fifth day, the animals were driven to run for 30 minutes every day, and they were allowed to move freely in the cage the rest of the time. After modeling, indomethacin and compounds 1˜19 were given by gavage every day at the dose of 100 mg/kg/d. The blank control group and the model control group were given equal volume of isotonic saline. At the 4th week after operation, the articular fluid of rats in each group was extracted to measure the content of MMP-13. The rats were killed, and the subchondral bone plate of the inner condyle of the tibia of the right knee was cut and processed into specimens, and pathological scores were made.
# C57 mice = experiment: Toxicity test, 180 consecutive days by gavage in C57 mice; type: in vivo; details: 100 mg/kg/D for 180 consecutive days by gavage
# Experimental: In this example, the toxicities of compounds 1-19 prepared in example 1 were analyzed.
# C57 mice were given compounds 1-19 at a dose of 100 mg/kg/D for 180 consecutive days by gavage. One hour after the last administration of the drug, the mice were anesthetized by intraperitoneal injection of sodium pentobarbital (40 mg/kg), placed on a constant temperature hot plate at 37±1° C., blood was taken by cardiac puncture or pathological sections were made to detect the side effects (gastrointestinal reaction, nervous system toxicity, hematological toxicity, allergic reaction, nephrotoxicity, hepatotoxicity, rash and asthma) The side effects of aspirin, ibuprofen, indomethacin, phenylbutazone, diclofenac, piroxicam and glucocorticoid groups were investigated according to the same administration method as compounds 1-19.
structure (smiles),measurement,setting,value
"COc1ccc2c(c1)c(CC(=O)O)c(C)n2C(=O)c1ccc(Cl)cc1 [Indometacin, indometacin, reference compound]",Aspartate aminotransferase (AST),mouse hepatitis model; 6 h after administration,220 ± 19 U/L
same,Serum alanine aminotransferase (ALT),mouse hepatitis model; 6 h after administration,465 ± 43 U/L
same,Aspartate aminotransferase (AST),mouse hepatitis model; 12 h after administration,780 ± 82 U/L
same,Serum alanine aminotransferase (ALT),mouse hepatitis model; 12 h after administration,1232 ± 113 U/L
same,Aspartate aminotransferase (AST),mouse hepatitis model; 24 h after administration,1021 ± 103 U/L
same,Serum alanine aminotransferase (ALT),mouse hepatitis model; 24 h after administration,2165 ± 203 U/L
same,Aspartate aminotransferase (AST),mouse hepatitis model; 48 h after administration,870 ± 91 U/L
same,Serum alanine aminotransferase (ALT),mouse hepatitis model; 48 h after administration,1287 ± 133 U/L
same,MMP-13 content in joint fluid,arthritis model,195 ± 8 mg/L
same,Pathological tissue score (joint),arthritis model,2.1 ± 0.3
same,Occurrence rate of side effects,C57 mice,20%

# Source: patent US20260083743A1, “NUCLEOSIDE DERIVATIVE FOR PREVENTING AND TREATING INFLAMMATION AND APPLICATION THEREOF” (WEST CHINA HOSPITAL OF SICHUAN UNIVERSITY, priority 2019, published 2026)
